# System: 4T1 tumor
# Experiment: 4T1 syngeneic tumor model
# Assay type: in vivo, BALB/c mice
# Experimental: To test potential immunomodulatory activity of Compound 1 in vivo, antitumor efficacy studies were performed in syngeneic tumor models.
# MBT-2 cells were obtained from the Japanese Collection of Research Bioresources Cell Bank and were maintained in DMEM supplemented with 10% FBS. MC38 cells were obtained from the NCI. 4T1 cells were obtained from ATCC and maintained in RPMI media supplemented with 10% FBS. For MBT-2 experiments, 5×10^5 MBT-2 cells were inoculated subcutaneously into the right hind flank of 6- to 8-week-old C3H mice or athymic nude mice (Charles River Laboratories, Wilmington, Mass.). For MC38 studies, 12-week old female C57BL/6 mice were inoculated with brei of MC38 tumors (in-vivo passage 6) into the right hind flank. For 4T1 studies, 7.5×10^5 4 T1 cells were inoculated subcutaneously into the right hind flank of 6- to 8-week-old female BALB/c mice or athymic nude mice (Charles River Laboratories). […] Mice were monitored for tumor growth and overt tolerability over the course of the experiment. […] Tumor volume was calculated using the formula (L×W^2)/2, where L and W refer to the length and width dimensions, respectively. Tumor growth inhibition (TGI) was calculated using the formula (1−(VT/VC))×100, where VT is the tumor volume of the treatment group on the last day of treatment, and VC is the tumor volume of the control group on the last day of treatment. […]
smiles,measurement,setting,value
"CC(C)C(=O)N1CCC(c2cc(-c3ccc(NC(=O)c4cn(C(C)C)c(=O)n(-c5ccccn5)c4=O)cc3)c3c(N)ncnn23)CC1 [Compound 1, N-(4-(4-Amino-7-(1-isobutyrylpiperidin-4-yl)pyrrolo[1,2-f][1,2,4]triazin-5-yl)phenyl)-1-isopropyl-2,4-dioxo-3-(pyridin-2-yl)-1,2,3,4-tetrahydropyrimidine-5-carboxamide]",antitumor efficacy (tumor volume),"4T1 in BALB/c mice, oral BID, FIG. 7B",dose-dependent efficacy
same,ratio of M1-like to M2-like macrophages,"4T1 tumors, flow cytometry, FIG. 7D",increased the ratio of M1-like to M2-like macrophages in a dose-dependent manner

# — patent US12214036B2, “Combination therapy comprising AXL/MER and PD-1/PD-L1 inhibitors” (Incyte Corporation, priority 2020, dated 2025)
